The record followed here is patent US11524966B1 (Valo Early Discovery, Inc., priority 2017, dated 2022).

Bounds are passed on as bounds.

The assay deals with T1, USP25 (USP25-His6, Boston Biochem E-546) (Homo sapiens, UniProt Q9UHP3).
T1 construct: His6; purchased Boston Biochem E-546
T1 sequence (Q9UHP3 1-1055): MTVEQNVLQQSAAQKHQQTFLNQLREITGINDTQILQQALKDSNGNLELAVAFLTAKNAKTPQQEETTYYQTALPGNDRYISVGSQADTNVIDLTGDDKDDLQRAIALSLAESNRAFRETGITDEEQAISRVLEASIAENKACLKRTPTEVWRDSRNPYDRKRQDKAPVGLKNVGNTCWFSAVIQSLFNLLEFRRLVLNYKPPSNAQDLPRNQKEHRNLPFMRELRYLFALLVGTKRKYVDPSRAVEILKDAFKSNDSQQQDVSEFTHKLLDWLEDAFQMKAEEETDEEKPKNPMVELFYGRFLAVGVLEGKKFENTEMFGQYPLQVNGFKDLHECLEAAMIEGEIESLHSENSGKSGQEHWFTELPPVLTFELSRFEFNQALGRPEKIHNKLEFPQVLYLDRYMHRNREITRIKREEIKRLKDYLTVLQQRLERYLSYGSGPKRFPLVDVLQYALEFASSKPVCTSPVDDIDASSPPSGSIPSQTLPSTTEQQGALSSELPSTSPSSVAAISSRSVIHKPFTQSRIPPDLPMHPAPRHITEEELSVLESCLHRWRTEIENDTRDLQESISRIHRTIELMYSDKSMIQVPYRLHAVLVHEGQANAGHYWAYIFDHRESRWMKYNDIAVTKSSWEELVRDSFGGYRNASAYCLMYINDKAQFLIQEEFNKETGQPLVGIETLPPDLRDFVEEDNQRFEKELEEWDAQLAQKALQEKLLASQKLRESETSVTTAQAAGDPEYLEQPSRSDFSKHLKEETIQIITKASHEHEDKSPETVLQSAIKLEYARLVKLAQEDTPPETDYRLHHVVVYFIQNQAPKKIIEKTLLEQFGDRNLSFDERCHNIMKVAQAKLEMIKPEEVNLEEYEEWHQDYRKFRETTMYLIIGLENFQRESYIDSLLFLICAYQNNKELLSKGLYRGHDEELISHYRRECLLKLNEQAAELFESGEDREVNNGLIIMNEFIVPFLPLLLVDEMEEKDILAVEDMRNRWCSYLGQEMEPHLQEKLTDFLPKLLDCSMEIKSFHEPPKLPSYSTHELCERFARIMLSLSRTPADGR
Nature of the assay: Ubiquitin-Rhodamine 110 Assay for USP25 Activity, Example A-2. It is filed as biochemical. The following applies: Ubiquitin-Rhodamine 110 assay, Example A-2; read-out: USP25 A-2 IC50 range. Summed up: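 75 pM USP25-His6 was preincubated 30 min with compound (10-point 3-fold series, 25 μM–1.3 nM) in pH 8.0 Tris buffer with BME, BGG and Triton X-100. Then 25 nM Ub-Rh110 (<<Km) was added for 45 min at room temperature, stopped with citric acid, fluorescence read at 485/535 nm, IC50 by 4-parameter fit.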
`CO[C@H]1CN(c2ccc3c(n2)CC[C@H](NC(=O)c2sc4nc(C)cnc4c2N)C3)C[C@@H]1NC(C)=O` [Example 266, 7-amino-N-[(6S)-2-[(3S,4S)-3-acetamido-4-methoxypyrrolidin-1-yl]-5,6,7,8-tetrahydroquinolin-6-yl]-3-methylthieno[2,3-b]pyrazine-6-carboxamide]: the IC50 is more than 2 µM.
Turning to `Cc1ccc2c(N)c(C(=O)N[C@H]3CCc4nc(N5C[C@H](OC(C)C)[C@@H](N)C5)ccc4C3)sc2n1` [Example 320], the IC50 is more than 2 µM.
On to `CO[C@H]1CN(c2ccc3c(n2)CC[C@H](NC(=O)c2sc4nc(C)cc(C)c4c2N)C3)C[C@@H]1NC(C)=O` [Example 293, 3-amino-N-[(6S)-2-[(3S,4S)-3-acetamido-4-methoxypyrrolidin-1-yl]-5,6,7,8-tetrahydroquinolin-6-yl]-4,6-dimethylthieno[2,3-b]pyridine-2-carboxamide], for which the IC50 is more than 2 µM.
Under `CO[C@@H]1CN(c2ccc3c(n2)CC[C@H](NC(=O)c2sc4nc(C)ccc4c2N)C3)C[C@@H]1N` [Example 269, 3-amino-N-[(6S)-2-[(3S,4R)-3-amino-4-methoxypyrrolidin-1-yl]-5,6,7,8-tetrahydroquinolin-6-yl]-6-methylthieno[2,3-b]pyridine-2-carboxamide] stands more than 2 µM.
Under `CO[C@H]1CN(c2ccc3c(c2)OC[C@H](NC(=O)c2sc4nc(C)ccc4c2N)C3)[C@@H](C)[C@@H]1N` [Example 333, 3-amino-N-[(3R)-7-[(2S,3S,4S)-3-amino-4-methoxy-2-methylpyrrolidin-1-yl]-3,4-dihydro-2H-1-benzopyran-3-yl]-6-methylthieno[2,3-b]pyridine-2-carboxamide] stands 0.05 to 0.2 µM.
Under `CCOC1CN(c2ccc3c(c2)OC[C@H](NC(=O)c2sc4nc(C)cc(C)c4c2N)C3)C[C@@H]1N` (stereo in doubt) [Example 323, 3-amino-N-[(3R)-7-[(3S,4R)-3-amino-4-ethoxypyrrolidin-1-yl]-3,4-dihydro-2H-1-benzopyran-3-yl]-4,6-dimethylthieno[2,3-b]pyridine-2-carboxamide] stands 0.05 to 0.2 µM.
In the case of `Cc1ccc2c(N)c(C(=O)N[C@H]3COc4cc(N5CC6(C5)OCC[C@@H]6N)ccc4C3)sc2n1` [Example 338, 3-amino-N-[(3R)-7-[(8S)-8-amino-5-oxa-2-azaspiro[3.4]octan-2-yl]-3,4-dihydro-2H-1-benzopyran-3-yl]-6-methylthieno[2,3-b]pyridine-2-carboxamide], the IC50 lay within 0.2 to 2 µM.
`Cc1ccc2c(N)c(C(=O)N[C@H]3COc4cc(N5C[C@@H]6CCN[C@@H]6C5)ccc4C3)sc2n1` [Example 304, N-[(3R)-7-[(3aS,6aS)-octahydropyrrolo[3,4-b]pyrrol-5-yl]-3,4-dihydro-2H-1-benzopyran-3-yl]-3-amino-6-methylthieno[2,3-b]pyridine-2-carboxamide]: the IC50 lay within 0.2 to 2 µM.
Under `Cc1ccc2c(N)c(C(=O)N[C@H]3CCc4nc(N5C[C@H](N)[C@H](OC(C)C)C5)ccc4C3)sc2n1` [Example 321, 3-amino-N-[(6S)-2-[(3S,4R)-3-amino-4-(propan-2-yloxy)pyrrolidin-1-yl]-5,6,7,8-tetrahydroquinolin-6-yl]-6-methylthieno[2,3-b]pyridine-2-carboxamide] stands more than 2 µM; under `COC[C@@]1(C)CN(c2ccc3c(n2)CC[C@H](NC(=O)c2sc4nc(C)ccc4c2N)C3)CC1N` (stereo in doubt) [Example 343, 3-amino-N-[(6S)-2-[(3S,4S)-4-amino-3-(methoxymethyl)-3-methylpyrrolidin-1-yl]-5,6,7,8-tetrahydroquinolin-6-yl]-6-methylthieno[2,3-b]pyridine-2-carboxamide], 0.2 to 2 µM; under `Cc1ccc2c(N)c(C(=O)N[C@H]3COc4cc(N5C[C@H](C(F)F)[C@@H](N)C5)ccc4C3)sc2n1` [Example 294, 3-amino-N-[(3R)-7-[(3R,4S)-3-amino-4-(difluoromethyl)pyrrolidin-1-yl]-3,4-dihydro-2H-1-benzopyran-3-yl]-6-methylthieno[2,3-b]pyridine-2-carboxamide], 0.05 to 0.2 µM.
Under `COC[C@H]1CN(c2ccc3c(n2)CC[C@H](NC(=O)c2sc4nc(C)cc(C)c4c2N)C3)C[C@H]1N` [Example 297, 3-amino-N-[(6S)-2-[(3S,4S)-3-amino-4-(methoxymethyl)pyrrolidin-1-yl]-5,6,7,8-tetrahydroquinolin-6-yl]-4,6-dimethylthieno[2,3-b]pyridine-2-carboxamide] stands 0.2 to 2 µM.
Under `CO[C@@]1(C)CN(c2ccc3c(n2)CC[C@H](NC(=O)c2sc4nc(C)cnc4c2N)C3)C[C@@H]1N` [Example 279, 7-amino-N-[(6S)-2-[(3S,4S)-4-amino-3-methoxy-3-methylpyrrolidin-1-yl]-5,6,7,8-tetrahydroquinolin-6-yl]-3-methylthieno[2,3-b]pyrazine-6-carboxamide] stands more than 2 µM; under `CO[C@@]12CNC[C@@H]1CN(c1ccc3c(c1)OC[C@H](NC(=O)c1sc4nc(C)ccc4c1N)C3)C2` [Example 292, N-[(3R)-7-[(3aR,6aR)-3a-methoxy-octahydropyrrolo[3,4-c]pyrrol-2-yl]-3,4-dihydro-2H-1-benzopyran-3-yl]-3-amino-6-methylthieno[2,3-b]pyridine-2-carboxamide], 0.2 to 2 µM; under `Cc1ccc2c(N)c(C(=O)N[C@H]3COc4nc(N5C[C@H](OC(C)C)[C@@H](N)C5)ccc4C3)sc2n1` [Example 287, 3-amino-N-[(3R)-7-[(3S,4S)-3-amino-4-(propan-2-yloxy)pyrrolidin-1-yl]-2H,3H,4H-pyrano[2,3-b]pyridin-3-yl]-6-methylthieno[2,3-b]pyridine-2-carboxamide], more than 2 µM.
Take `CN[C@H]1CN(c2ccc3c(n2)CC[C@H](NC(=O)c2sc4nc(C)ccc4c2N)C3)C[C@@H]1OC` [Example 311, 3-amino-N-[(6S)-2-[(3S,4S)-3-methoxy-4-(methylamino)pyrrolidin-1-yl]-5,6,7,8-tetrahydroquinolin-6-yl]-6-methylthieno[2,3-b]pyridine-2-carboxamide]: the IC50 was more than 2 µM.
Under `CO[C@H]1[C@H](N)CN(c2ccc3c(c2)OC[C@H](NC(=O)c2sc4nc(C)ccc4c2N)C3)[C@@H]1C` [Example 284, 3-amino-N-[(3R)-7-[(2R,3S,4R)-4-amino-3-methoxy-2-methylpyrrolidin-1-yl]-3,4-dihydro-2H-1-benzopyran-3-yl]-6-methylthieno[2,3-b]pyridine-2-carboxamide] stands 0.05 to 0.2 µM.
Under `CO[C@]1(C)CN(c2ccc3c(n2)OC[C@H](NC(=O)c2sc4nc(C)ccc4c2N)C3)C[C@H]1N` [Example 326, 3-amino-N-[(3R)-7-[(3R,4R)-4-amino-3-methoxy-3-methylpyrrolidin-1-yl]-2H,3H,4H-pyrano[2,3-b]pyridin-3-yl]-6-methylthieno[2,3-b]pyridine-2-carboxamide] stands more than 2 µM; under `Cc1ccc2c(N)c(C(=O)N[C@H]3COc4cc(N5CC6(C5)OCC[C@H]6N)ccc4C3)sc2n1` [Example 337, 3-amino-N-[(3R)-7-[(8R)-8-amino-5-oxa-2-azaspiro[3.4]octan-2-yl]-3,4-dihydro-2H-1-benzopyran-3-yl]-6-methylthieno[2,3-b]pyridine-2-carboxamide], 0.2 to 2 µM.
Under `CN[C@H]1CN(c2ccc3c(n2)CC[C@H](NC(=O)c2sc4nc(C)ccc4c2N)C3)C[C@@]1(C)O` [Example 331, 3-amino-N-[(6S)-2-[(3R,4S)-3-hydroxy-3-methyl-4-(methylamino)pyrrolidin-1-yl]-5,6,7,8-tetrahydroquinolin-6-yl]-6-methylthieno[2,3-b]pyridine-2-carboxamide] stands more than 2 µM; under `Cc1ccc2c(N)c(C(=O)N[C@H]3CCc4nc(N5C[C@H](OC6CCC6)[C@@H](N)C5)ccc4C3)sc2n1` [Example 285, 3-amino-N-[(6S)-2-[(3S,4S)-3-amino-4-cyclobutoxypyrrolidin-1-yl]-5,6,7,8-tetrahydroquinolin-6-yl]-6-methylthieno[2,3-b]pyridine-2-carboxamide], more than 2 µM.
With `COC[C@@H]1CN(c2ccc3c(n2)CC[C@H](NC(=O)c2sc4nc(C)cc(C)c4c2N)C3)C[C@@H]1N` [Example 296, 3-amino-N-[(6S)-2-[(3R,4R)-3-amino-4-(methoxymethyl)pyrrolidin-1-yl]-5,6,7,8-tetrahydroquinolin-6-yl]-4,6-dimethylthieno[2,3-b]pyridine-2-carboxamide-], the IC50 is more than 2 µM.

One may read the IC50 as the midpoint of a concentration-inhibition curve.
